Results published in patent US9422240B2, “Partially saturated nitrogen-containing heterocyclic compound” (TAISHO PHARMACEUTICAL CO., LTD, priority 2012, dated 2016).

Molecular target: human PHD2 (Homo sapiens (Human), UniProt Q9GZT9)
Test: Test 2: human PHD2 inhibitory activity, fluorescence polarization assay of HIF-1α peptide proline hydroxylation
Assay type: biochemical
Conditions: for IC50: human PHD2, fluorescence polarization assay, 20-min incubation at 30° C.; for inhibition at 1 µM: test compound's concentration 1 μM, Test 2, fluorescence polarization assay, read-out: Percent inhibition (% at 1 μM)
Procedure: (1) Expression and Preparation of Human PHD2
A registered sequence of human PHD2 (NM_022051) was introduced into pcDNA3.1/Hygro(+) vector (Invitrogen), and the sequence was verified. […] The suspension of disrupted cells was centrifuged at 4° C. and 100,000×g for 30 minutes and the supernatant was recovered as a cell lysate.
(2) Measurement of Human PHD2 Inhibitory Activity
The activity of human PHD2 enzyme was measured with a substrate which is a 19-residue partial peptide based on the sequence of HIF-1α; specifically, the hydroxylation of a proline residue in the peptide was measured by FP (Fluorescence Polarization).
A test compound and the substrate solution were preliminarily added onto 384-well plates and reaction was initiated by adding a human PHD2 enzyme solution (40 ng/well). After 20-min incubation at 30° C., an EDTA-containing quench solution was added and the amount of the proline residues hydroxylated via binding to an added HIF—OH antibody solution was quantified by fluorescence polarization.
The fluorescence polarization of each well was measured and the human PHD2 inhibitory activity of each test compound was calculated on the basis of the values for the test compound-free group.

Sequence of human PHD2 (Q9GZT9 whole entry): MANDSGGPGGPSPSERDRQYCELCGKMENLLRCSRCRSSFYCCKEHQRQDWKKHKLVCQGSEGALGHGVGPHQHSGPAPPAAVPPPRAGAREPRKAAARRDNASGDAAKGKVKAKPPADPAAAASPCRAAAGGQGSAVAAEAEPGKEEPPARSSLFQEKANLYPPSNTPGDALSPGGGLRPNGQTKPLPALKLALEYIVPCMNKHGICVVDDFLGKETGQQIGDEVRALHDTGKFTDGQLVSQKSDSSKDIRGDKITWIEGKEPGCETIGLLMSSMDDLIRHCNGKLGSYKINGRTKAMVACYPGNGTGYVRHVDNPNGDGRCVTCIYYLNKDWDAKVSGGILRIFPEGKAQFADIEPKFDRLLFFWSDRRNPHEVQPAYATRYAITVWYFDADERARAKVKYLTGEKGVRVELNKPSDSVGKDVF

Structure (SMILES)	IC50 [µM]	inhibition at 1 µM [%]
O=C(O)CNC(=O)C1=C(O)CCN(Cc2ccc(Oc3ncccn3)cc2)C1=O [Ex. 1-226]	0.409	84
O=C(O)CNC(=O)C1=C(O)CCN(CC2CCN(C(=O)OCc3ccccc3)CC2)C1=O [Ex. 1-248]	–	94
O=C(O)CNC(=O)C1=C(O)CCNC1=O [Ex. 1-308]	–	41
CN1CCC(O)=C(C(=O)NCC(=O)O)C1=O [Ex. 1-309]	–	58
O=C(O)CNC(=O)C1=C(O)CC2(CCCCC2)CN(Cc2ccccc2)C1=O [Ex. 1-310]	–	59
O=C(O)CNC(=O)C1=C(O)CC2(CCNCC2)N(Cc2ccc(-c3ccccc3)cc2)C1=O [Ex. 1-311]	–	83
O=C(O)CNC(=O)C1=C(O)CC2(CCCCC2)CN(Cc2ccc(-c3ccccc3)cc2)C1=O [Ex. 1-312]	–	86
O=C(O)CNC(=O)C1=C(O)CC2(CNC2)N(Cc2ccc(-c3ccccc3)cc2)C1=O [Ex. 1-313]	–	96
O=C(O)CNC(=O)C1=C(O)CC2(CNC(=O)C2)N(Cc2ccc(-c3ccccc3)cc2)C1=O (centres unmarked) [Ex. 1-314]	–	86
CN1CC2(CC1=O)CC(O)=C(C(=O)NCC(=O)O)C(=O)N2Cc1ccc(-c2ccccc2)cc1 (centres unmarked) [Ex. 1-315]	–	81
O=C(O)CNC(=O)C1=C(O)CCN(Cc2ccc(-c3cncnc3)cc2)C1=O [Ex. 1-316]	–	87
CCCCCCCCCN1CCC(O)=C(C(=O)NCC(=O)O)C1=O [Ex. 1-317]	–	85
O=C(O)CNC(=O)C1=C(O)CN(Cc2ccc(-c3ccccc3)cc2)C1=O [Ex. 1-318]	–	96
CC(C)CN1CCC(O)=C(C(=O)NCC(=O)O)C1=O [Ex. 1-319]	–	42
O=C(O)CNC(=O)C1=C(O)CCN(Cc2cncnc2)C1=O [Ex. 1-320]	–	57
O=C(O)CNC(=O)C1=C(O)CCN(Cc2ccc(C(=O)N3CCCCC3)cc2)C1=O [Ex. 1-321]	–	84
CCCNC(=O)c1ccc(CN2CCC(O)=C(C(=O)NCC(=O)O)C2=O)cc1 [Ex. 1-322]	–	77
CC1C(O)=C(C(=O)NCC(=O)O)C(=O)N1Cc1ccc(-c2ccccc2)cc1 (centres unmarked) [Ex. 1-323]	–	87
CC1(C)C(O)=C(C(=O)NCC(=O)O)C(=O)N1Cc1ccc(-c2ccccc2)cc1 [Ex. 1-324]	–	91
O=C(O)CNC(=O)C1=C(O)C2(CCCCC2)N(Cc2ccc(-c3ccccc3)cc2)C1=O [Ex. 1-325]	–	90
O=C(O)CNC(=O)C1=C(O)C(c2ccccc2)N(Cc2ccc(-c3ccccc3)cc2)C1=O (centres unmarked) [Ex. 1-326]	–	71
CS(=O)(=O)c1ccc(CN2CCC(O)=C(C(=O)NCC(=O)O)C2=O)cc1 [Ex. 1-327]	–	81
CS(=O)(=O)c1ccc(CN2C(=O)C(C(=O)NCC(=O)O)=C(O)CC23CCCCC3)cc1 [Ex. 1-328]	–	63
O=C(O)CNC(=O)C1=C(O)C2(CCCCC2)N(Cc2ccc(-c3ccc(C(F)(F)F)cc3)cc2)C1=O [Ex. 1-329]	–	87

Structure (SMILES)	IC50 [µM]	inhibition at 1 µM [%]
CC(C)(C)c1ccc(-c2ccc(CN3C(=O)C(C(=O)NCC(=O)O)=C(O)C34CCCCC4)cc2)cc1 [Ex. 1-330]	–	69
CS(=O)(=O)c1ccc(CN2CC3(CCCCC3)C(O)=C(C(=O)NCC(=O)O)C2=O)cc1 [Ex. 1-331]	–	75
O=C(O)CNC(=O)C1=C(O)C2(CCCCC2)N(CC2CCC(c3ccccc3)CC2)C1=O (centres unmarked) [Ex. 1-332]	–	73
Cc1ccc(Oc2ncc(CN3CCC(O)=C(C(=O)NCC(=O)O)C3=O)cc2C)cn1 [Ex. 1-333]	0.092	91
O=C(O)CNC(=O)C1=C(O)C(F)(F)CN(Cc2ccc(C(F)(F)F)cc2)C1=O [Ex. 1-334]	–	96
O=C(O)CNC(=O)C1=C(O)CCN(Cc2ccc(C(=O)O)cc2)C1=O [Ex. 1-335]	–	73
O=C(O)CNC(=O)C1=C(O)CCN(Cc2ccc(-c3cccnc3)cn2)C1=O [Ex. 1-336]	–	82
Cn1cc(CN2CCC(O)=C(C(=O)NCC(=O)O)C2=O)cn1 [Ex. 1-337]	–	66
O=C(O)CNC(=O)C1=C(O)CCN(Cc2cnc(C(F)(F)F)nc2)C1=O [Ex. 1-338]	–	71
Cc1nc(CN2CCC(O)=C(C(=O)NCC(=O)O)C2=O)c[nH]1 [Ex. 1-339]	–	40
O=C(O)CNC(=O)C1=C(O)CCN(Cc2cnc(N3CCOCC3)s2)C1=O [Ex. 1-340]	–	69
Cc1csc(CN2CCC(O)=C(C(=O)NCC(=O)O)C2=O)n1 [Ex. 1-341]	–	66
CN1CCN(c2ccc(CN3CCC(O)=C(C(=O)NCC(=O)O)C3=O)cc2)CC1 [Ex. 1-342]	–	57
CN(C)CCCOc1ccc(CN2CCC(O)=C(C(=O)NCC(=O)O)C2=O)cc1 [Ex. 1-343]	–	51
O=C(O)CNC(=O)C1=C(O)CCN(Cc2ccc(OCCO)cc2)C1=O [Ex. 1-344]	–	76
CN(C)CCNC(=O)c1ccc(CN2CCC(O)=C(C(=O)NCC(=O)O)C2=O)cc1 [Ex. 1-345]	–	55
O=C(O)CNC(=O)C1=C(O)CCN(Cc2ccc(OCC(=O)O)cc2)C1=O [Ex. 1-346]	–	80
O=C(O)CNC(=O)C1=C(O)CCN(Cc2ccc(C(=O)NCCO)cc2)C1=O [Ex. 1-347]	–	55
O=C(O)CNC(=O)C1=C(O)CCN(Cc2ccc(C(=O)NCc3ccccn3)cc2)C1=O [Ex. 1-348]	–	76
O=C(O)CNC(=O)C1=C(O)CCN(Cc2ccc(C(=O)NCCc3ccccn3)cc2)C1=O [Ex. 1-349]	–	74
O=C(O)CNC(=O)C1=C(O)CCN(Cc2ccc(C(=O)NCCN3CCCC3=O)cc2)C1=O [Ex. 1-350]	–	61
O=C(O)CNC(=O)C1=C(O)CCN(Cc2ccc(C(=O)NCC(=O)O)cc2)C1=O [Ex. 1-351]	–	81
O=C(O)CNC(=O)C1=C(O)CCN(C[C@H]2C[C@@H]2c2ccc(F)cc2)C1=O [Ex. 1-352]	–	91
COc1cccc(Oc2ccc(CN3CCC(O)=C(C(=O)NCC(=O)O)C3=O)cn2)c1 [Ex. 1-354]	0.061	96

Structure (SMILES)	IC50 [µM]	inhibition at 1 µM [%]
O=C(O)CNC(=O)C1=C(O)CCN(Cc2ccc(Oc3ccc(C(F)(F)F)cc3)cn2)C1=O [Ex. 1-356]	0.06	96
O=C(O)CNC(=O)C1=C(O)C2(CCC2)CN(Cc2ccc(OC(F)(F)F)c(Cl)c2)C1=O [Ex. 1-357]	–	74
COc1ccc(-c2ccc(CN3CC(C)(C)C(O)=C(C(=O)NCC(=O)O)C3=O)cc2)cn1 [Ex. 1-358]	–	88
CC1(C)CN(Cc2ccc(OC3CC3)cc2)C(=O)C(C(=O)NCC(=O)O)=C1O [Ex. 1-359]	–	69
COc1ccc(-c2ccc(CN3CC4(CCC4)C(O)=C(C(=O)NCC(=O)O)C3=O)cc2)cn1 [Ex. 1-361]	–	93
CC1(C)CN(Cc2ccc(C3CC3)cc2)C(=O)C(C(=O)NCC(=O)O)=C1O [Ex. 1-362]	–	83
O=C(O)CNC(=O)C1=C(O)C2(CCC2)CN(Cc2ccc(OC3CC3)cc2)C1=O [Ex. 1-363]	–	77
Cc1cccc(COc2ccc(CN3CCC(O)=C(C(=O)NCC(=O)O)C3=O)cc2)c1 [Ex. 1-364]	–	97
O=C(O)CNC(=O)C1=C(O)CCN(Cc2ccc(Oc3ccc(C(F)(F)F)nc3)cc2)C1=O [Ex. 1-365]	0.056	97
Cc1ccc(Oc2ccc(CN3CCC(O)=C(C(=O)NCC(=O)O)C3=O)cn2)cc1Cl [Ex. 1-366]	0.019	103
Cc1ccc(Oc2ccc(CN3CCC(O)=C(C(=O)NCC(=O)O)C3=O)cn2)cc1F [Ex. 1-367]	0.026	105
Cc1cc(Oc2ccc(CN3CCC(O)=C(C(=O)NCC(=O)O)C3=O)cn2)ccc1F [Ex. 1-368]	0.041	101
O=C(O)CNC(=O)C1=C(O)CCN(Cc2ccc(OCc3ccccc3Cl)cc2)C1=O [Ex. 1-369]	–	98
CC1(COc2ccc(CN3CCC(O)=C(C(=O)NCC(=O)O)C3=O)cc2)CC1 [Ex. 1-370]	–	84
O=C(O)CNC(=O)C1=C(O)CCN(CC2CC(c3ccc(F)cc3)C2)C1=O (centres unmarked) [Ex. 1-371]	–	90
O=C(O)CNC(=O)C1=C(O)CCN(Cc2ccc(OCc3cccnc3)cc2)C1=O [Ex. 1-372]	–	89
Cc1cccc(COc2ccc(CN3CCC(O)=C(C(=O)NCC(=O)O)C3=O)cc2)n1 [Ex. 1-373]	–	85
O=C(O)CNC(=O)C1=C(O)CCN(Cc2ccc(OCc3ccccc3)c(F)c2)C1=O [Ex. 1-374]	–	96
O=C(O)CNC(=O)C1=C(O)CCN(Cc2ccc(OCc3ccc(OC(F)(F)F)cc3)cc2)C1=O [Ex. 1-375]	–	85
CCc1ccc(Oc2ccc(CN3CCC(O)=C(C(=O)NCC(=O)O)C3=O)cn2)cc1 [Ex. 1-376]	0.022	100
CCCc1ccc(Oc2ccc(CN3CCC(O)=C(C(=O)NCC(=O)O)C3=O)cn2)cc1 [Ex. 1-377]	0.015	96
CC(C)c1ccc(Oc2ccc(CN3CCC(O)=C(C(=O)NCC(=O)O)C3=O)cn2)cc1 [Ex. 1-378]	0.014	98
Cc1cc(CN2CCC(O)=C(C(=O)NCC(=O)O)C2=O)ccc1OCC(F)(F)F [Ex. 1-379]	–	84
O=C(O)CNC(=O)C1=C(O)CCN(Cc2ccc(OCc3ccccc3)nc2)C1=O [Ex. 1-380]	–	92
